In PubChem BioAssay (NCI):
Several values for one entry are separate records, joined by “and”; a condition that tells them apart may be missing. Equal values may be shown once.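 Growth conditions: 96-well plates. Treatment: test compound, 48 hours, 5 concentrations. Analysis: linear interpolation between bracketing concentrations; unreached endpoints set to highest concentration. At the GI50, growth is halved. At the TGI there is no net growth.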

Key:
Assay in all cases: inhibition of tumour cell growth, NCI panel, 48 h
COLO 205 colon = tested on: COLO 205 colon
HCC-2998 colon = tested on: HCC-2998 colon
HS 578T breast = tested on: HS 578T breast
KM12 colon = tested on: KM12 colon
NCI-H23 lung = tested on: NCI-H23 lung
NCI-H460 lung = tested on: NCI-H460 lung
NCI-H522 lung = tested on: NCI-H522 lung
SNB-75 CNS = tested on: SNB-75 CNS
U251 CNS = tested on: U251 CNS
EKVX NSCLC = tested on: EKVX NSCLC

Compound	GI50 (COLO 205 colon) [µM]	TGI (COLO 205 colon) [µM]	GI50 (HCC-2998 colon) [µM]	TGI (HCC-2998 colon) [µM]	GI50 (HS 578T breast) [µM]	TGI (HS 578T breast) [µM]	GI50 (KM12 colon) [µM]	TGI (KM12 colon) [µM]	GI50 (NCI-H23 lung) [µM]	TGI (NCI-H23 lung) [µM]	GI50 (NCI-H460 lung) [µM]	TGI (NCI-H460 lung) [µM]	GI50 (NCI-H522 lung) [µM]	TGI (NCI-H522 lung) [µM]	GI50 (SNB-75 CNS) [µM]	TGI (SNB-75 CNS)	GI50 (U251 CNS) [µM]	TGI (U251 CNS) [µM]	TGI (EKVX NSCLC) [µM]	GI50 (EKVX NSCLC) [µM]
FC(F)(F)c1ccc(-c2cnc(-n3cc(COCCN4CCCCC4)nn3)nc2NC2CCCCCC2)cc1	3.86	8.57	3.93	7.44	3.91	10.6	4.27	8.08	3.8	7.81	4.57	8.84	3.93	7.99	2.72	6.4 µM	3.5	6.87	–	–
O=c1cc(-c2c[nH]c3ccccc23)[nH]c2cc3c(cc12)OCO3	–	> 100	–	> 100	–	–	–	–	–	> 100	–	> 100	–	–	–	72.6 µM	–	> 100	> 100	–
Cc1cc(Nc2nc(-c3cccnc3)nc3ccccc23)n[nH]1	1.07	3.74	21.5	> 100	0.364	3.74	0.206	99.1	5.16	> 100	1.84	> 100	1.69	> 100	0.3	2.18 µM	1.25	> 53.1	–	–
O=C1NC(=O)C(=Nc2cccc3c(=O)[nH][nH]c(=O)c23)C(c2nc3ccccc3s2)C1=O (configuration not stated)	–	> 100	–	> 100	–	–	–	> 100	–	> 100	–	> 100	–	> 100	–	> 100 µM	–	> 100	> 100	–
Cc1ccc(NC(=O)C2C(=O)N(c3ccc(C)c(C)c3)C(=O)/C2=N\NC(N)=O)cc1C (configuration not stated)	–	> 100	–	> 100	–	–	–	> 100	–	> 100	–	> 100	–	> 100	–	> 100 µM	–	> 100	> 100	–
CN=C(NC(=S)N(C)C)N(C)C	–	–	–	> 100	–	–	–	> 100	–	> 100	–	> 100	–	> 100	–	> 100 µM	–	> 100	> 100	–
CC(=O)N1N=C(c2ccc(Nc3ccnc4cc(Cl)ccc34)cc2)CC1c1ccc(Cl)cc1 (configuration not stated)	5.93	> 100	> 100	> 100	> 100	> 100	6.59	> 100	> 100	> 100	> 100	> 100	5.05	> 100	–	–	> 100	> 100	–	–
C#CC[N+](C)(CC#C)CC#C	–	> 100	–	> 100	–	–	–	> 100	–	> 100	–	> 100	–	> 100	–	> 100 µM	–	–	> 100	–
O=C(CSc1ncn[nH]1)C[P+](c1ccccc1)(c1ccccc1)c1ccccc1	–	> 100	–	> 100	–	–	–	> 100	–	> 100	–	> 100	–	43.2	–	> 100 µM	–	–	> 100	–
COc1cccc(/C=N/NC(=S)NC2CC3CCC2C3)c1O (configuration not stated)	96.7	> 100	80.4	> 100	4.27	22.2	26.3	> 100	15.1	45.4	2.47	8.43	11.5	37.6	1.58	5.47 µM	7.57	26.7	–	–
CCOc1ccc2c(c1)[n+]([O-])c(-c1ccc(Br)cc1)c(N)[n+]2[O-]	–	52.4	–	> 100	–	–	–	> 100	–	70.8	–	> 100	–	33.7	–	> 100 µM	–	> 100	> 100	–
O=C(O)C1CCCCC1c1c2ccc(=O)c(O)c-2oc2c(O)c(O)ccc12 (configuration not stated)	–	> 100	–	–	–	> 100	–	> 100	–	–	–	> 100	–	67	–	> 100 µM	–	24.8	> 100	–
CCOC(=O)c1c(C)n(Cc2ccccc2)c2c1cc(O)c1[nH]c(Cc3ccccc3)nc12	24.7	> 54.8	–	2.04	9.53	> 57.8	4.36	> 43.7	9.19	> 56	4.23	> 100	–	–	8.04	42.3 µM	7.46	33	> 79.5	25.5
CCN(CC)c1ccc(N=Nc2ccc([N+](=O)[O-])cc2OC(=O)/C=C/c2ccccc2)c(OC(=O)/C=C/c2ccccc2)c1	–	> 100	–	> 100	–	–	–	> 35.8	–	> 100	–	11.1	–	> 100	–	> 100 µM	–	> 100	> 100	–
C[N+](C)(C)CC1CCC/C1=N/O (configuration not stated)	–	38.7	–	> 100	–	–	–	> 100	–	> 100	–	> 100	–	> 100	–	> 100 µM	–	> 100	> 100	–
Cc1cccc(C(C)C)c1N1C(=O)C(=O)C(c2nc3ccccc3o2)C(=O)C1=O	–	> 100	–	> 100	–	–	–	> 100	–	> 100	–	> 100	–	89.5	–	> 100 µM	–	> 100	> 100	–
O=S(=O)(O)c1ccc(N=Nc2nc(C(F)(F)F)c(C(F)(F)F)[nH]2)cc1	–	> 100	–	–	–	–	–	> 100	–	68.7	–	> 100	–	–	–	> 100 µM	–	> 100	> 100	–
COc1cccc(-c2ccc3c(c2)C2CCN(Cc4ccccc4)C3C2)c1 (configuration not stated)	10	27.8	13.6	33.5	8.64	31	5.14	21.6	–	–	4.13	15.7	4.54	20.4	6.69	27.2 µM	7.63	22	–	–
NC1=NC(c2ccc(Cl)cc2)N(c2ccc(S(N)(=O)=O)cc2)C(N)=N1 (configuration not stated)	–	> 100	–	–	–	> 100	–	> 100	–	> 100	–	> 100	–	> 100	–	> 100 µM	–	> 100	> 100	–
COC(=O)C(=CNC(N)=O)C(=O)OC	–	> 100	–	–	–	> 100	–	> 100	–	> 100	–	> 100	–	> 100	–	–	–	–	> 100	–
NC(=O)c1c([N+](=O)[O-])cc(C(F)(F)F)cc1[N+](=O)[O-]	–	62.7	–	> 100	–	–	–	> 100	–	98.9	–	> 100	–	> 100	–	> 100 µM	–	> 100	> 100	–

Compound	GI50 (COLO 205 colon) [µM]	TGI (COLO 205 colon) [µM]	GI50 (HCC-2998 colon) [µM]	TGI (HCC-2998 colon) [µM]	GI50 (HS 578T breast) [µM]	TGI (HS 578T breast) [µM]	GI50 (KM12 colon) [µM]	TGI (KM12 colon) [µM]	GI50 (NCI-H23 lung) [µM]	TGI (NCI-H23 lung) [µM]	GI50 (NCI-H460 lung) [µM]	TGI (NCI-H460 lung) [µM]	GI50 (NCI-H522 lung) [µM]	TGI (NCI-H522 lung) [µM]	GI50 (SNB-75 CNS) [µM]	TGI (SNB-75 CNS)	GI50 (U251 CNS) [µM]	TGI (U251 CNS) [µM]	TGI (EKVX NSCLC) [µM]	GI50 (EKVX NSCLC) [µM]
COc1cccc(CSCC(=O)O)c1	–	> 100	–	–	–	> 100	–	> 100	–	> 100	–	> 100	–	> 100	–	> 100 µM	–	> 100	> 100	–
Cc1cc(-c2ccccc2)nc(Nc2nc3ccccc3o2)n1	–	> 100	–	> 100	–	–	–	> 100	–	> 100	–	> 100	–	> 100	–	–	–	> 100	> 100	–
CN(C)c1ccc(/C=C/c2ccc(/C=C/c3ccc(N(C)C)cc3)cc2)cc1	–	> 100	–	> 100	–	–	–	> 100	–	> 100	–	> 100	–	> 100	–	> 100 µM	–	> 100	> 100	–
S=C(Nc1ccc(N=Nc2ccccc2)cc1)SCc1ccccc1	–	42.1	–	–	–	61.5	–	30.6	–	30.7	–	39.5	–	36.2	–	44.2 µM	–	29.7	48.6	–
O=C(CC1(O)C(=O)Nc2ccc(Br)cc21)c1ccc(Cl)cc1Cl (configuration not stated)	–	> 100	–	> 100	–	–	–	> 100	–	> 100	–	> 100	–	70.5	–	> 100 µM	–	> 100	> 100	–
N#CC1CCCCOCCOCCOCCOCCOCCCCCC1=O (configuration not stated)	–	> 100	–	> 100	–	–	–	> 100	–	> 100	–	> 100	–	> 100	–	> 100 µM	–	> 100	> 100	–
CS(=O)(=O)NNS(=O)(=O)c1ccccc1	–	> 100	–	> 100	–	–	–	> 100	–	> 100	–	> 100	–	> 100	–	> 100 µM	–	> 100	> 100	–
CC(=O)NC1C(OCc2ccccc2)OC(CO)C(O)C1OC(C)C(=O)N[C@@H](C)C(=O)N[C@H](CCC(=O)OCCNc1c2ccccc2nc2cccc([N+](=O)[O-])c12)C(N)=O (some centres not stated)	–	0.0026	–	0.00378	–	–	–	0.00538	–	0.00545	–	0.00137	–	0.00669	–	0.0405 µM and 0.00887 µM	–	–	0.00472	–
O=[N+]([O-])c1ccc(Cl)c(C2CC(c3cccc4ccccc34)=Nc3ccccc3S2)c1 (configuration not stated)	–	> 100	–	> 100	–	–	–	> 100	–	20.8	–	> 100	–	43.9	–	60.5 µM	–	65.9	> 100	–
COC(=O)/C(=N/Nc1cccc(Cl)c1)C(C(=O)C(=O)Nc1cccc(Cl)c1C)c1nc2ccccc2nc1C (configuration not stated)	–	> 100	–	> 100	–	–	–	> 100	–	> 100	–	> 100	–	> 100	–	–	–	–	> 100	–
O=[N+]([O-])c1ccc(-c2noc(-c3ccc(Cl)cc3)c2C2=NCCN2)cc1	–	> 100	–	> 100	–	–	–	> 100	–	–	–	> 100	–	> 100	–	–	–	> 100	> 100	–
CC(C)(C)c1ccc(OC(=O)Nc2ccc(O)c(C(=O)O)c2)cc1	–	> 100	–	–	–	> 100	–	> 100	–	> 100	–	> 100	–	> 100	–	> 100 µM	–	> 100	> 100	–
S=c1nc(COc2ccc(Cl)cc2Cl)[nH][nH]1	–	–	–	> 100	–	–	–	–	–	> 100	–	> 100	–	–	–	> 100 µM	–	> 100	> 100	–
Nc1cc(O)ccc1N=Nc1ccc(-c2nc3ccccc3[nH]2)cc1	34.9	> 100	–	–	72.1	> 100	5.07	> 100	–	–	10.2	35.8	34.2	> 100	> 100	> 100 µM	30.3	> 100	92.1	21
CN(C)C(=Nc1nc(=[N+](C)C)ss1)N(C)C	–	–	–	> 100	–	–	–	> 100	–	> 100	–	> 100	–	> 100	–	> 100 µM	–	> 100	> 100	–
COC(=O)CCC1CCc2c(OC)ccc(OC)c2C1=O (configuration not stated)	–	> 100	–	> 100	–	–	–	> 100	–	> 100	–	> 100	–	> 100	–	> 100 µM	–	> 100	> 100	–
O=C(NCCO)c1ccc([N+](=O)[O-])cc1	–	> 100	–	> 100	–	–	–	> 100	–	> 100	–	> 100	–	> 100	–	> 100 µM	–	> 100	> 100	–
CCCCC(C)C(OC(=O)CC(CC(=O)O)C(=O)O)C(CC(C)CC(O)CCCCC(O)CC(O)C(C)N)OC(=O)CC(CC(=O)O)C(=O)O (configuration not stated)	–	> 100	–	> 100	–	–	–	> 100	–	> 100	–	> 100	–	> 100	–	> 100 µM	–	> 100	> 100	–
Cc1ccc(/C=C2\CN(C(=O)C(Cl)Cl)C/C(=C\c3ccc(C)cc3)C2=O)cc1	0.241	0.695	0.176	0.33	0.343	3.71	0.193	0.48	0.221	0.478	–	–	–	–	0.573	2.9 µM	0.143	0.334	2.31	0.348
CN(C)c1nnnn1-c1c(N)n(C)c(=O)n(C)c1=O	–	> 100	–	> 100	–	–	–	> 100	–	> 100	–	> 100	–	> 100	–	> 100 µM	–	> 100	> 100	–
